Test results reported in US20040266871A1, “Methods for treating alzheimer's disease using quinaldoyl-amine derivatives of oxo-and hydroxy-substituted hydrocarbons” (priority 2001, published 2004).

- melting point: 142 to 143 °C
Structure (SMILES): CC(C)(C)OC(=O)NN(C[C@H](O)[C@H](Cc1ccccc1)NC(=O)OCc1ccccc1)C1CCCCC1 [Example 31, t-Butyl 3-cyclohexyl-3-[(2S, 3S)-2-hydroxy-3-(phenylmethoxycarbonyl)amino-4-phenylbutyl]carbazate]
